Drawing on US20250346574A1, “PYRIDINYL SUBSTITUTED OXOISOINDOLINE COMPOUNDS FOR THE TREATMENT OF CANCER” (Bristol-Myers Squibb Company, priority 2021, published 2025), this text covers DC50 for twelve compounds.

The structures appear in SMILES notation. A value given as a limit tells only on which side of the number the result lay.

For orientation: DC50 means the midpoint of the concentration-degradation curve.

Helios, sequence (Q9UKS7 whole entry): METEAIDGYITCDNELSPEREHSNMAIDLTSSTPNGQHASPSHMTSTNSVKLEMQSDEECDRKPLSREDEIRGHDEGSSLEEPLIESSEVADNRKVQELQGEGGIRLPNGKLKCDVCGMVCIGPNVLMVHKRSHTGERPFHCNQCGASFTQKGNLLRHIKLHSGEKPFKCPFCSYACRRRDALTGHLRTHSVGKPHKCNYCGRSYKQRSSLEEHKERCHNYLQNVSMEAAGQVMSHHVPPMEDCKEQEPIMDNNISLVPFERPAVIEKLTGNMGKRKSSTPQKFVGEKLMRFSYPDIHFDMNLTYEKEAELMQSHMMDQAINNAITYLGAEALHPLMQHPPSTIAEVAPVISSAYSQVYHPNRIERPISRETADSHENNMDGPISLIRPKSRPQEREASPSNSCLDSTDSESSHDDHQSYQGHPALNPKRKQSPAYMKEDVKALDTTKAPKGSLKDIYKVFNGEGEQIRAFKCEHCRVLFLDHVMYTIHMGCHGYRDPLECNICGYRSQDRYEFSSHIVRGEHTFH
Helios, sequence (Q96SW2 whole entry): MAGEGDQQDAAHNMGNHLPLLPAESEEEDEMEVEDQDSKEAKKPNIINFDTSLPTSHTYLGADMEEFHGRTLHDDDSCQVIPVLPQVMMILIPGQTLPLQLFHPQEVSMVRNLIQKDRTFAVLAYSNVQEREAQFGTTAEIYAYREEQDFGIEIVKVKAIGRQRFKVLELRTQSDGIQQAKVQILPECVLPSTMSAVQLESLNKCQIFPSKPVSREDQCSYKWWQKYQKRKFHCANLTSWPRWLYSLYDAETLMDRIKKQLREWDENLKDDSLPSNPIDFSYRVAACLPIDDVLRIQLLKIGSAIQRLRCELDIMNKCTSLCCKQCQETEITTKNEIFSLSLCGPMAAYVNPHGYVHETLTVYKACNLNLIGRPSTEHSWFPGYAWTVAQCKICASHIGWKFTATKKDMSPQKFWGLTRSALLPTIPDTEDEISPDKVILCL
Helios, sequence (Q16531 whole entry partner): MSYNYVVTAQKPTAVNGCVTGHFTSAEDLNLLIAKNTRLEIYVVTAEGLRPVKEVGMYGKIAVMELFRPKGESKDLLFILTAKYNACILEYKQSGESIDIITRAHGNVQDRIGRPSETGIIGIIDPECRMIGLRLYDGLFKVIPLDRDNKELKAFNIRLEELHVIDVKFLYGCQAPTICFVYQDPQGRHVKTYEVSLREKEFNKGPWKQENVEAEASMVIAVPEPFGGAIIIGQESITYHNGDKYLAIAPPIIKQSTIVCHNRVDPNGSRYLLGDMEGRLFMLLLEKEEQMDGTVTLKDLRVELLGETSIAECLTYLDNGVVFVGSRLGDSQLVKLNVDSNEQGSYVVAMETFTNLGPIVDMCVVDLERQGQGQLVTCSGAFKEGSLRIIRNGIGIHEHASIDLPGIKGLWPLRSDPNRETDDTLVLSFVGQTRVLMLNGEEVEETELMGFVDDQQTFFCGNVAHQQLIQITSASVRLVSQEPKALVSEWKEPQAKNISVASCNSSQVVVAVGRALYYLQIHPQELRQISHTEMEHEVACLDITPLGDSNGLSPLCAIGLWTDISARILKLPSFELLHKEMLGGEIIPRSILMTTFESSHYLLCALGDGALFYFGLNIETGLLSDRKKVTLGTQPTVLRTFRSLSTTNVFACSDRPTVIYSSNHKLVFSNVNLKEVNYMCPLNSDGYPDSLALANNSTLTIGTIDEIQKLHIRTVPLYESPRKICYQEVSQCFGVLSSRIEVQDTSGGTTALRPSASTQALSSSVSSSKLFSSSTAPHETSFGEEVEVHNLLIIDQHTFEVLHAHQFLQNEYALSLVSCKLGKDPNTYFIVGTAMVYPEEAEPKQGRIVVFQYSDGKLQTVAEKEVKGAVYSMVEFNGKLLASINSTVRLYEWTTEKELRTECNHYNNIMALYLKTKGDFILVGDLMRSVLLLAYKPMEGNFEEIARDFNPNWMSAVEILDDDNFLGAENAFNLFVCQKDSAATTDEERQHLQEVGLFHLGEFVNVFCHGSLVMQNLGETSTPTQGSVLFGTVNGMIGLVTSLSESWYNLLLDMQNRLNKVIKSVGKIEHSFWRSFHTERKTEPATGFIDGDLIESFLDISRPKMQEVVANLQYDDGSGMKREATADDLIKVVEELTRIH

This assay has as its target Helios (Homo sapiens, UniProt Q96SW2+Q9UKS7). The assay is described as follows: Helios Human T Regulatory Cells Degradation Assay. Set-up: fluorescently labelled antibodies against Helios in 1× Permeabilization buffer; endogenous in cells; host or cells: cryopreserved human T regulatory cells. Format: cell-based. To be noted: cryopreserved human T regulatory cells, incubated 20 hours, Helios-APC antibody staining, flow cytometry; read-out: hTreg Helios DC50. An outline of the steps: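 Cryopreserved human Treg cells thawed in RPMI+10% FBS+20 ng/mL IL-2, rested 3 h, then incubated with compound 20 hours at 37° C, 5% CO2. Near-IR viability stain, permeabilization, flow cytometry read-out.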
Background: A flow cytometer gives signals particle by particle.
For the compound `COC(=O)N1CC2(CCN(Cc3ccnc(-c4ccc5c(c4)CN(C4CCC(=O)NC4=O)C5=O)c3F)CC2)C1` (stereo not drawn) [Example 252, methyl 7-((2-(2-(2,6-dioxopiperidin-3-yl)-1-oxoisoindolin-5-yl)-3-fluoropyridin-4-yl)methyl)-2,7-diazaspiro[3.5]nonane-2-carboxylate], the DC50 was at least 10 µM.
With `O=C1CCC(N2Cc3cc(-c4nccc(CN5CCCC(F)(c6ccccc6)C5)c4F)ccc3C2=O)C(=O)N1` (stereo not drawn) [Example 253, 3-(5-(3-fluoro-4-((3-fluoro-3-phenylpiperidin-1-yl)methyl)pyridin-2-yl)-1-oxoisoindolin-2-yl)piperidine-2,6-dione], the half-maximal degradation concentration (DC50) was at least 10 µM.
As for `O=C1CCC(N2Cc3cc(-c4nccc(CN5CCc6[nH]ncc6C5)c4F)ccc3C2=O)C(=O)N1` (stereo not drawn) [Example 254, 3-(5-(3-fluoro-4-((1,4,6,7-tetrahydro-5H-pyrazolo[4,3-c]pyridin-5-yl)methyl)pyridin-2-yl)-1-oxoisoindolin-2-yl) piperidine-2,6-dione], the figure is at least 10 µM; as for `CC1(O)CC2CN(Cc3ccnc(-c4ccc5c(c4)CN(C4CCC(=O)NC4=O)C5=O)c3F)CC2C1` (stereo not drawn) [Example 255, 3-(5-(3-fluoro-4-((5-hydroxy-5-methylhexahydrocyclopenta[c]pyrrol-2(1H)-yl)methyl)pyridin-2-yl)-1-oxoisoindolin-2-yl)piperidine-2,6-dione], 0.492 µM.
Take `Cc1ccc(C)c(C2(O)CCN(Cc3ccnc(-c4ccc5c(c4)CN(C4CCC(=O)NC4=O)C5=O)c3F)C2)c1` (stereo not drawn) [Example 256, 3-(5-(4-((3-(2,5-dimethylphenyl)-3-hydroxypyrrolidin-1-yl)methyl)-3-fluoropyridin-2-yl)-1-oxoisoindolin-2-yl)piperidine-2,6-dione]: the half-maximal degradation concentration (DC50) is 1.14 µM.
The same measure for `O=C1CCC(N2Cc3cc(-c4nccc(CN5CCC(O)(c6ccccc6)C5)c4F)ccc3C2=O)C(=O)N1` (stereo not drawn) [Example 257, 3-(5-(3-fluoro-4-((3-hydroxy-3-phenylpyrrolidin-1-yl)methyl)pyridin-2-yl)-1-oxoisoindolin-2-yl)piperidine-2,6-dione]: at least 10 µM; for `O=C1CCC(N2Cc3cc(-c4nccc(CN5CC[C@@H](F)C5)c4F)ccc3C2=O)C(=O)N1` (stereo partly drawn) [Example 258, 3-(5-(3-fluoro-4-(((R)-3-fluoropyrrolidin-1-yl)methyl)pyridin-2-yl)-1-oxoisoindolin-2-yl)piperidine-2,6-dione]: at least 10 µM.
As for `O=C1CCC(N2Cc3cc(-c4nccc(CN5CCc6oncc6C5)c4F)ccc3C2=O)C(=O)N1` (stereo not drawn) [Example 259, 3-(5-(4-((6,7-dihydroisoxazolo[4,5-c]pyridin-5(4H)-yl)methyl)-3-fluoropyridin-2-yl)-1-oxoisoindolin-2-yl)piperidine-2,6-dione], the half-maximal degradation concentration (DC50) is at least 10 µM.
As for `O=C1CCC(N2Cc3cc(-c4nccc(CN5CCC(F)CC5)c4F)ccc3C2=O)C(=O)N1` (stereo not drawn) [Example 260, 3-(5-(3-fluoro-4-((4-fluoropiperidin-1-yl)methyl)pyridin-2-yl)-1-oxoisoindolin-2-yl)piperidine-2,6-dione], the figure is 0.14 µM; as for `O=C1CCC(N2Cc3cc(-c4nccc(CN5CCC(F)(F)CC5)c4F)ccc3C2=O)C(=O)N1` (stereo not drawn) [Example 261, 3-(5-(4-((4,4-difluoropiperidin-1-yl)methyl)-3-fluoropyridin-2-yl)-1-oxoisoindolin-2-yl)piperidine-2,6-dione], at least 10 µM.
For `Cc1nnc2n1CCN(Cc1ccnc(-c3ccc4c(c3)CN(C3CCC(=O)NC3=O)C4=O)c1F)C2` (stereo not drawn) [Example 262, 3-(5-(3-fluoro-4-((3-methyl-5,6-dihydro-[1,2,4]triazolo[4,3-a]pyrazin-7(8H)-yl)methyl)pyridin-2-yl)-1-oxoisoindolin-2-yl)piperidine-2,6-dione], the DC50 was at least 10 µM.
As for `O=C1CCC(N2Cc3cc(-c4nccc(CN5CCn6cnnc6C5)c4F)ccc3C2=O)C(=O)N1` (stereo not drawn) [Example 263, 3-(5-(4-((5,6-dihydro-[1,2,4]triazolo[4,3-a]pyrazin-7(8H)-yl)methyl)-3-fluoropyridin-2-yl)-1-oxoisoindolin-2-yl)piperidine-2,6-dione], the figure is 1.23 µM.
